Data as given in ChEMBL document CHEMBL5223082, “Alkyl-Aryl-Vancomycins: Multimodal Glycopeptides with Weak Dependence on the Bacterial Metabolic State” (J Med Chem, 2021).
≈ marks a conversion by molar mass, not a printed value. Calls of active or inactive are those of the source. The calls are words filed in the database; no cut-off is given here.

Tests used:
Staphylococcus aureus [1] = test: Antibacterial activity against Vancomycin-resistant Staphylococcus aureus 12 assessed as inhibition of bacterial growth incubated for 18 to 24 hrs by CLSI microbroth dilution method; type: functional; conditions: time 18-24 hrs
Staphylococcus aureus [2] = test: Antibacterial activity against Methicillin-resistant Staphylococcus aureus ATCC 33591 assessed as inhibition of bacterial growth incubated for 18 to 24 hrs by CLSI microbroth dilution method; type: functional; conditions: time 18-24 hrs
Enterococcus [3] = test: Antibacterial activity against Vancomycin-resistant Enterococci NR30909 assessed as inhibition of bacterial growth incubated for 18 to 24 hrs by CLSI microbroth dilution method; type: functional; conditions: time 18-24 hrs
Bacillus subtilis [4] = test: Inhibition of cell wall biosynthesis in Bacillus subtilis 168 assessed as bubble-like formation on bacterial cell surface at PEC incubated for 15 mins by light microscopic analysis; type: functional, organism-based
Staphylococcus aureus [5] = test: Antibacterial activity against Vancomycin-resistant Staphylococcus aureus 1 assessed as inhibition of bacterial growth incubated for 18 to 24 hrs by CLSI microbroth dilution method; type: functional; conditions: time 18-24 hrs
Cell membrane [6] = test: Induction of cytoplasmic membrane depolarization in Vancomycin-resistant Enterococci assessed as increase in fluorescence intensity at 10 uM measured for 35 to 40 mins by DiSC3(5) dye based fluorescence analysis; type: subcellular; conditions: Enterococcus, time 35-40 min
Bacillus subtilis [7] = test: Antibacterial activity against Bacillus subtilis 168 assessed as concentration that requires for bacterial growth retardation measured for every 30 mins; type: functional
Staphylococcus aureus [8] = test: Antibacterial activity against Vancomycin-resistant Staphylococcus aureus 4 assessed as inhibition of bacterial growth incubated for 18 to 24 hrs by CLSI microbroth dilution method; type: functional; conditions: time 18-24 hrs
Staphylococcus aureus [9] = test: Antibacterial activity against Methicillin-resistant Staphylococcus aureus ATCC 33591 persister cells assessed as reduction in bacterial colonies at 40 uM incubated for 24 hrs in broth solution followed by incubation on agar plate for 48 hrs by spot plating method; type: functional, organism-based; conditions: time 72.0 hrs
Staphylococcus aureus [10] = test: Antibiofilm activity against Methicillin-resistant Staphylococcus aureus ATCC 33591 assessed as bacterial biofilm thickness at 20 uM incubated for 24 hrs by confocal laser scanning microscopy (reference value: 8 micrometer); type: functional
Staphylococcus aureus [11] = test: Antibacterial activity against Methicillin-resistant Staphylococcus aureus ATCC 33591 assessed as inhibition of bacterial growth preincubated compound with N,N'-diacetyl-L-Lys-D-Ala-D-Ala for 10 mins followed by incubation with bacterial culture for 18 to 24 hrs by CLSI microbroth dilution method; type: functional; conditions: time 1090-1450 min
Staphylococcus aureus [12] = test: Ratio of MIC for antibacterial activity against Methicillin-resistant Staphylococcus aureus ATCC 33591 in presence of N,N'-diacetyl-L-Lys-D-Ala-D-Ala to MIC for antibacterial activity against Methicillin-resistant Staphylococcus aureus ATCC 33591; type: functional
Staphylococcus aureus [13] = test: Antibacterial activity against Methicillin-resistant Staphylococcus aureus ATCC 33591 assessed as inhibition of bacterial growth preincubated compound with teichoic-acid for 1 hr followed by incubation with bacterial culture for 18 to 24 hrs by CLSI microbroth dilution method; type: functional; conditions: time 19-25 hrs
Staphylococcus aureus [14] = test: Antibiofilm activity against Methicillin-resistant Staphylococcus aureus ATCC 33591 assessed as log reduction in bacterial viability within the biofilms at 20 uM incubated for 24 hrs in broth solution followed by culturing on agar plate for 24 hrs by spot plating method; type: functional; conditions: time 48 hrs
Staphylococcus aureus [15] = test: Bactericidal activity against methicillin-resistant Staphylococcus aureus ATCC 33591 assessed as reduction in bacterial colonies at MIC to 8XMIC incubated for 6 hrs in broth solution followed by culturing for 24 hrs on agar plate by spot plating method; type: functional, organism-based; conditions: time 30.0 hrs
Staphylococcus aureus [16] = test: Antibacterial activity against Methicillin-resistant Staphylococcus aureus ATCC 33591 assessed as time duration of post-antibiotic effect for suppression of bacterial growth at 10XMIC incubated for 1 hr in broth solution followed by washing for drug removal and subsequent plating on nutrient agar plate; type: functional
Cell membrane [17] = test: Induction of cytoplasmic membrane depolarization in Methicillin-resistant Staphylococcus aureus ATCC 33591 assessed as increase in fluorescence intensity at 10 uM measured for 35 to 40 mins by DiSC3(5) dye based fluorescence analysis; type: subcellular; conditions: time 35-40 min
Enterococcus [18] = test: Antibacterial activity against Vancomycin-resistant Enterococci ATCC 51559 assessed as inhibition of bacterial growth incubated for 18 to 24 hrs by CLSI microbroth dilution method; type: functional; conditions: time 18-24 hrs
Enterococcus [19] = test: Antibacterial activity against Vancomycin-resistant Enterococci ATCC 51575 assessed as inhibition of bacterial growth incubated for 18 to 24 hrs by CLSI microbroth dilution method; type: functional; conditions: time 18-24 hrs
Enterococcus [20] = test: Antibacterial activity against Vancomycin-resistant Enterococci NR30903 assessed as inhibition of bacterial growth incubated for 18 to 24 hrs by CLSI microbroth dilution method; type: functional; conditions: time 18-24 hrs
[21] = target: T1, Septum site-determining protein MinD (Bacillus subtilis (strain 168)) (UniProt Q01464); test: Delocalization of GFP tagged-MinD in Bacillus subtilis 168 at PEC incubated for 15 mins by fluorescence microscopy
T1 sequence (whole entry): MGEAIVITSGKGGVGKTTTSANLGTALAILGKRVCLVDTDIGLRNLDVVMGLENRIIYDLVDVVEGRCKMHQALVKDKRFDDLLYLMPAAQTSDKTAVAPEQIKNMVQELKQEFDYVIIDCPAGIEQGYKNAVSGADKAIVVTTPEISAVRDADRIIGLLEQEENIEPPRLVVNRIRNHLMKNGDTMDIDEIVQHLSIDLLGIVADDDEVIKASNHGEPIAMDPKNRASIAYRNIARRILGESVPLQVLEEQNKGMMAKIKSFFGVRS

Staphylococcus aureus [22] = test: Ratio of MIC for antibacterial activity against Methicillin-resistant Staphylococcus aureus ATCC 33591 measured after 27 passages to MIC for antibacterial activity against Methicillin-resistant Staphylococcus aureus ATCC 33591 measured after 18 to 24 hrs incubation; type: functional
Staphylococcus aureus [23] = test: Antibacterial activity against Methicillin-resistant Staphylococcus aureus ATCC 33591 assessed as log reduction in bacterial colonies at 10XMIC incubated for 1 hr in broth solution followed by plating on nutrient agar plate; type: functional
Cell membrane [24] = test: Induction of cytoplasmic membrane depolarization in Bacillus subtilis assessed as increase in fluorescence intensity at 10 uM measured for 35 to 40 mins by DiSC3(5) dye based fluorescence analysis; type: subcellular; conditions: time 35-40 min

## CN[C@H](CC(C)C)C(=O)N[C@H]1C(=O)N[C@@H](CC(N)=O)C(=O)N[C@H]2C(=O)N[C@H]3C(=O)N[C@H](C(=O)N[C@H](C(=O)O)c4cc(O)cc(O)c4-c4cc3ccc4O)[C@H](O)c3ccc(c(Cl)c3)Oc3cc2cc(c3O[C@@H]2O[C@H](CO)[C@@H](O)[C@H](O)[C@H]2O[C@H]2C[C@](C)(N)[C@H](O)[C@H](C)O2)Oc2ccc(cc2Cl)[C@H]1O [VANCOMYCIN]
Staphylococcus aureus [1]
  MIC: 346 µM (≈ 501 µg/mL)
Staphylococcus aureus [2]
  MIC: 0.6 µM (≈ 0.87 µg/mL)
Enterococcus [3]
  MIC: 346 µM (≈ 501 µg/mL)
Bacillus subtilis [4]
  inhibition: Active
Staphylococcus aureus [5]
  MIC: 346 µM (≈ 501 µg/mL)
Cell membrane [6]
  Activity: inactive
Bacillus subtilis [7]
  EC: 0.4 µM
Staphylococcus aureus [8]
  MIC: 346 µM (≈ 501 µg/mL)
Staphylococcus aureus [9]
  Activity: inactive
Staphylococcus aureus [10]
  Activity: 7 um
Staphylococcus aureus [11]
  MIC: > 30 µM
Staphylococcus aureus [12]
  Ratio: >40
Staphylococcus aureus [13]
  MIC: 0.6 µM (≈ 0.87 µg/mL)
Staphylococcus aureus [14]
  Activity: 0.9 log10CFU/ml
Staphylococcus aureus [15]
  Activity: Active
Staphylococcus aureus [16]
  Time: 6 h
Cell membrane [17]
  Activity: inactive
Enterococcus [18]
  MIC: 1380 µM (≈ 2010 µg/mL)
Enterococcus [19]
  MIC: 346 µM (≈ 501 µg/mL)
Enterococcus [20]
  MIC: 692 µM (≈ 1000 µg/mL)
[21]
  Activity: inactive
Staphylococcus aureus [22]
  Ratio: 2
Staphylococcus aureus [23]
  Activity: 0.5 log10CFU/ml
Cell membrane [24]
  Activity: inactive
